# Measurements: publication PMC12396409, “Screening and hit evaluation of a microbial metabolite library against the pathogenic Plasmodium falciparum and Toxoplasma gondii parasites” (International Journal for Parasitology: Drugs and Drug …, 2025)
# Where two headings read alike, the source gives them in different places.
# Legend:
# [1] = test system: T. gondii RH strain (RH-Tub-eYFP) tachyzoites; assay: microbe, parasite or virus in culture; format: cell-based, Toxoplasma gondii; conditions: for percent parasite growth at 2 µg/mL: Toxoplasma gondii
# [2] = test system: P. falciparum 3D7 parasites; assay: P. falciparum growth inhibition assay, 2-cycle (120 h treatment), delayed-death screen and dose-response; format: cell-based, Plasmodium falciparum; conditions: for activity at 2 µg/mL: Plasmodium falciparum, 3D7
# [3] = test system: P. falciparum 3D7 parasites; assay: P. falciparum growth inhibition assay, 1-cycle (72 h treatment), SYBR DNA staining (library screen at 2 μg/mL and dose-response); format: cell-based, Plasmodium falciparum; conditions: for activity at 2 µg/mL: Plasmodium falciparum, 3D7
# [4] = library screen at 2 μg/mL, 72 h, % growth, replicate 1
# [5] = library screen at 2 μg/mL, 72 h, % growth, replicate 2
# [6] = library screen at 2 μg/mL, 120 h, % growth, replicate 1
# [7] = library screen at 2 μg/mL, 120 h, % growth, replicate 2
compound,measurement,setting,value
CC[C@H]1CCC[C@H](O)[C@@H](C)C(=O)C2=C[C@@H]3[C@@H](C=C(C)[C@@H]4C[C@@H](O)C[C@@H]34)[C@@H]2CC(=O)O1 [Spinosyn D aglycone],Tg_72h_%Growth_Rep1,"[1]; T. gondii, 72 h, parasite screen 2 μg/mL, % growth, replicate 1",115.34%
same,Tg_72h_%Growth_Rep2,"[1]; T. gondii, 72 h, parasite screen 2 μg/mL, % growth, replicate 2",86.84%
same,Pf_120h_%Growth_Rep1,"[2]; P. falciparum, 120 h, parasite screen 2 μg/mL, % growth, replicate 1",82.24%
same,Pf_120h_%Growth_Rep2,"[2]; P. falciparum, 120 h, parasite screen 2 μg/mL, % growth, replicate 2",90.76%
same,IC50,"[3]; 3D7, 72 h treatment, mean ± S.D., n ≥ 3, read-out: IC50 (μM), P. falciparum",> 1 µM
same,Pf_72h_%Growth_Rep1,"[3]; P. falciparum, 72 h, parasite screen 2 μg/mL, % growth, replicate 1",82.67%
same,Pf_72h_%Growth_Rep2,"[3]; P. falciparum, 72 h, parasite screen 2 μg/mL, % growth, replicate 2",106.85%
same,Screen (P. falciparum),"[3]; library screen at 2 μg/mL, 3D7, 72 h, DD from the 120 h timepoint",I
Diacetoxyscirpenol,Tg_72h_%Growth_Rep1,[1],-1.25%
same,Tg_72h_%Growth_Rep2,[1],-0.43%
same,Pf_120h_%Growth_Rep1,[2],13.51%
same,Pf_120h_%Growth_Rep2,[2],-0.91%
same,Pf_72h_%Growth_Rep1,[3],9.42%
same,Pf_72h_%Growth_Rep2,[3],-2.86%
CO[C@H]1C[C@H](O[C@H]2[C@H](C)O[C@@H](O[C@@H]3/C(C)=C/C[C@@H]4C[C@@H](C[C@]5(C=C[C@H](C)[C@@H](C(C)C)O5)O4)OC(=O)[C@@H]4C=C(C)[C@@H](O)[C@H]5OC/C(=C\C=C\[C@@H]3C)[C@]54O)C[C@@H]2OC)O[C@@H](C)[C@@H]1O [Avermectin B1b],Tg_72h_%Growth_Rep1,[1]; [4],74.43%
same,Tg_72h_%Growth_Rep2,[1]; [5],75.78%
same,Pf_120h_%Growth_Rep1,[2]; [6],7.97%
same,Pf_120h_%Growth_Rep2,[2]; [7],-7.80%
same,Pf_72h_%Growth_Rep1,[3]; [4],8.18%
same,Pf_72h_%Growth_Rep2,[3]; [5],3.73%
CO[C@@H]1[C@@H](OC(N)=O)[C@@H](O)[C@H](Oc2ccc3c(O)c(NC(=O)c4ccc(O)c(CCC(C)C)c4)c(=O)oc3c2C)OC1(C)C [Dihydronovobiocin],Tg_72h_%Growth_Rep1,[1]; [4],162.91%
same,Tg_72h_%Growth_Rep2,[1]; [5],101.29%
same,Pf_120h_%Growth_Rep1,[2]; [6],93.97%
same,Pf_120h_%Growth_Rep2,[2]; [7],91.59%
same,Pf_72h_%Growth_Rep1,[3]; [4],88.16%
same,Pf_72h_%Growth_Rep2,[3]; [5],85.96%
C=C1C(=O)O[C@H]2C(=O)O[C@H](CCCCCCCC)[C@@H]12 [Avenaciolide],Tg_72h_%Growth_Rep1,[1]; [4],102.05%
same,Tg_72h_%Growth_Rep2,[1]; [5],95.83%
same,Pf_120h_%Growth_Rep1,[2]; [6],53.72%
same,Pf_120h_%Growth_Rep2,[2]; [7],80.39%
same,Pf_72h_%Growth_Rep1,[3]; [4],79.34%
same,Pf_72h_%Growth_Rep2,[3]; [5],78.44%
CC(=O)N[C@H]1[C@H](O[C@@H]2c3ccc(c(Cl)c3)Oc3cc4cc(c3O)Oc3ccc(cc3Cl)C[C@H]3NC(=O)[C@H](N)c5ccc(O)c(c5)Oc5cc(O)cc(c5)[C@H](NC3=O)C(=O)N[C@H]4C(=O)N[C@H]3C(=O)N[C@@H]2C(=O)N[C@H](C(=O)O)c2cc(O)cc(O[C@H]4O[C@H](CO)[C@@H](O)[C@H](O)[C@@H]4O)c2-c2cc3ccc2O)O[C@H](CO)[C@@H](O)[C@@H]1O [Teicoplanin A3-1],Tg_72h_%Growth_Rep1,"[1]; T. gondii, 72 h, screen at 2 μg/mL, replicate 1",92.73%
same,Tg_72h_%Growth_Rep2,"[1]; T. gondii, 72 h, screen at 2 μg/mL, replicate 2",87.18%
same,Pf_120h_%Growth_Rep1,"[2]; P. falciparum, 120 h, screen at 2 μg/mL, replicate 1",162.68%
same,Pf_120h_%Growth_Rep2,"[2]; P. falciparum, 120 h, screen at 2 μg/mL, replicate 2",89.82%
same,Pf_72h_%Growth_Rep1,"[3]; P. falciparum, 72 h, screen at 2 μg/mL, replicate 1",83.89%
same,Pf_72h_%Growth_Rep2,"[3]; P. falciparum, 72 h, screen at 2 μg/mL, replicate 2",89.40%
CN(C)[C@@H]1C(O)=C(C(=O)NCN2CCCC2)C(=O)[C@@]2(O)C(O)=C3C(=O)c4c(O)cccc4[C@@](C)(O)[C@H]3C[C@@H]12 [Rolitetracycline],percent parasite growth at 2 µg/mL,"[1]; 72 h, T. gondii, 72 h, parasite screen 2 μg/mL, % growth, replicate 1, read-out: Tg_72h_%Growth_Rep1",105%
same,percent parasite growth at 2 µg/mL,"[1]; 72 h, T. gondii, 72 h, parasite screen 2 μg/mL, % growth, replicate 2, read-out: Tg_72h_%Growth_Rep2",84.7%
same,activity at 2 µg/mL,"[2]; P. falciparum, 120 h, parasite screen 2 μg/mL, % growth, replicate 1, read-out: Pf_120h_%Growth_Rep1",82.2%
same,activity at 2 µg/mL,"[2]; P. falciparum, 120 h, parasite screen 2 μg/mL, % growth, replicate 2, read-out: Pf_120h_%Growth_Rep2",135%
same,activity at 2 µg/mL,"[3]; P. falciparum, 72 h, parasite screen 2 μg/mL, % growth, replicate 1, read-out: Pf_72h_%Growth_Rep1",87.6%
same,activity at 2 µg/mL,"[3]; P. falciparum, 72 h, parasite screen 2 μg/mL, % growth, replicate 2, read-out: Pf_72h_%Growth_Rep2",70%
O=C1Cc2ccccc2N1 [BIA-O1735],Tg_72h_%Growth_Rep1,"[1]; T. gondii, 72 h, parasite screen at 2 μg/mL, % growth, replicate 1",124.39%
same,Tg_72h_%Growth_Rep2,"[1]; T. gondii, 72 h, parasite screen at 2 μg/mL, % growth, replicate 2",90.71%
same,Pf_120h_%Growth_Rep1,"[2]; P. falciparum 3D7, 120 h, parasite screen at 2 μg/mL, % growth, replicate 1",73.62%
same,Pf_120h_%Growth_Rep2,"[2]; P. falciparum 3D7, 120 h, parasite screen at 2 μg/mL, % growth, replicate 2",127.66%
same,Pf_72h_%Growth_Rep1,"[3]; P. falciparum 3D7, 72 h, parasite screen at 2 μg/mL, % growth, replicate 1",82.92%
same,Pf_72h_%Growth_Rep2,"[3]; P. falciparum 3D7, 72 h, parasite screen at 2 μg/mL, % growth, replicate 2",80.95%
